Test results taken from patent publication US7087392B2, “Antiproliferative SgK reagents and methods” (The Regents of the University of California, priority 1999, dated 2006).
Where a chain is given by its changes, count along the chain named. Numbers in names are those of the source.

What was measured:
Sgk = experiment: In vitro peptide kinase assay (Sgktide, [32P]ATP) of immunoprecipitated HA-Sgk; format: biochemical; settings: for effect of cell treatment on Sgk enzymatic activity: activators or inhibitor of PI 3-kinase pathway; for kinase activity / activation of Sgk mutant: mutant forms of Sgk
Text: Sgk is a component of the PI3 kinase cascade and is directly activated by PDK1 mediated phosphorylation of threonine 256 in the activation loop. […] To develop this kinase assay, lysates from human embryo kidney 293 cells transfected to express wild type hemagglutinin (HA)-tagged Sgk (HA-Sgk) were isolated and the Sgk immunoprecipitated with HA antibodies was used to screen a synthetic peptide library for identifying potential Sgk substrates. The immunoprecipitates were extensively washed, and incubated with the peptide in the presence of [^32P]ATP in kinase buffer (Park et al 1999). Sgk phosphorylated several peptides, and the best substrate for Sgk was KKRNRRLSVA (SEQ ID NO:01), which is named Sgktide. […] This substrate specificity is generally similar to, but not identical, with the substrate specificity for Akt, which is a well characterized down stream component of the PI 3 kinase pathway.
(§1) Cotransfection of PDK1 with Sgk caused a 6-fold activation of Sgk activity, whereas, the kinase-dead form of PDK1 had no effect. […] The Ser-78 in the amino terminal domain is a third phosphorylation site and expression of the S78G Sgk mutation ablates the presence of the slowest migrating form of phosphorylated Sgk in SDS polyacrylamide gels.

Sgk promoter = experiment: Hyperosmotic stress stimulation of Sgk promoter and Sgk protein production; format: cell-based, mouse; settings: sorbitol hyperosmotic stress
Text: Regulation of Sgk transcription, protein utilization and enzymatic activity defines a new cellular component of the hyperosmotic stress pathway. Using mouse NMuMg nontumorigenic mammary epithelial cells, we have established that Sgk is a new component of the hyperosmotic stress response. (The key observations can be repeated in HeLa cells, MCF-7 human breast cancer cells, kidney derived cell and rat fibroblasts). […] This hyperosmotic stress regulated element can confer the hyperosmotic stress response to a heterologous promoter. […] Using a generally similar series of experiments, we have also shown that exposure of mammary epithelial cells to 40 J/m^2 UV radiation causes a rapid but transient stimulation in Sgk protein levels that peaks approximately 2 hours after this genotoxic stress.
The hyperosmotic stress cascade targets the sgk promoter by activating the p38/MAPK stress kinase. […] Co-transfection of the stress responsive Sgk-CAT reporter plasmid with a dominant negative form of MKK3, one of two upstream kinase regulators of the p38/MAPK, inhibits the sorbitol induction of the Sgk promoter.

Sgk and Erk/MAPK = experiment: Subcellular localization of Sgk and Erk/MAPK in mammary tumor cells; format: cell-based; settings: MEK inhibitor treatment
Text: Sgk/MAPK interactions: new level of cross talk between GR and phosphorylation cascades. We also observed that the enzymatic activity and subcellular localization of Sgk and the Erk1/Erk2 members of the Mitogen Activated Protein Kinase (MAPK) gene family are co-regulated in a stimulus-dependent manner. […] Wild type or kinase dead forms of Sgk can be co-immunoprecipitated with Erk/MAPK from either serum- or dexamethasone-treated mammary tumor cells. […] Conversely, the forced cellular localization of ectopically expressed Sgk into the nucleus, using the NLS-Sgk, or into the cytoplasmic compartment using the wild type sgk gene, caused Erk/MAPK to co-localize with Sgk.

endogenous Sgk = experiment: Phosphorylation state of Sgk in treated cells; format: cell-based; settings: treatment of cells; serum stimulated mammary tumor cells for the PI 3-kinase inhibitors
Text: as §1

mammary tumor cells = experiment: Transient cell foci growth assay of transfected mammary tumor cells; format: cell-based; settings: transfected expression vector
Text: Functional evidence for a direct role of sgk in the glucocorticoid anti-proliferative pathway. In both the Con8 mammary epithelial tumor cells (from which Sgk was originally cloned) as well as human MCF-7 breast cancer cells (which were originally derived from a pleural effusion of a metastatic human breast adenocarcinoma) glucocorticoids induce a G1 block in cell cycle progression and strongly stimulate sgk transcript and protein production. […] To initially test whether Sgk has an anti-proliferative function and perhaps mediates the glucocorticoid growth inhibitory response, the full length rat or human wild type sgk cDNA was inserted downstream of the cytomegalovirus (CMV) promoter in an expression vector that also encodes the neomycin resistance gene. […] Transfection competent cells were selected in 0.5 mg/ml of the G418 neomycin derivative for two weeks.
Expression vectors encoding several point mutants or truncations of Sgk were transfected into the mammary tumor cells and cell growth monitored by the cell foci assay.
Transient transfection and rapid screen of the sgk expression vectors for the anti-proliferative response in rodent and human mammary tumor cells. A transient cell foci growth assay is employed to rapidly screen the various Sgk constructs to define the domains that mediate the anti-proliferative response in rat and human mammary tumor cells using our optimized conditions. The advantage of this assay is that many different mutant Sgk expression vectors can be simultaneously compared for their growth inhibitory effects. Also, this assay can be used to rapidly assess the proliferative effects of combinations of Sgk and its interacting proteins or substrates. Populations of human MCF-7 breast cancer cells or rat Con8 mammary tumor cells are transfected by the lipofectin transfection procedures and cultured in normally cytotoxic concentrations (750 μg/ml) of the G418 neomycin derivative to recover transfection competent cells. Approximately 5000 transfected cells are cultured as colonies on plastic, and after one to two weeks are fixed and stained in crystal violet/formalin to visualize the cell colonies. The effects on cell proliferation are quantitated by simply counting the resulting cell colonies or by scanning the total cell density on each plate. To provide a control for the fidelity of the cell foci assays, in each experiment, cells transfected with the control vectors (no Sgk sequences) are treated with or without 1 μM dexamethasone because the cells are growth suppressed by this synthetic glucocorticoid. […]

pervanadate [reference compound]
effect of cell treatment on Sgk enzymatic activity (Sgk): stimulated Sgk enzymatic activity

Oc1ccc(-c2nc(-c3ccncc3)c(-c3ccc(F)cc3)[nH]2)cc1 [SB202190]
hyperosmotic stress-stimulation of the Sgk promoter and Sgk protein production (Sgk promoter): dampens the hyperosmotic stress-stimulation of the Sgk promoter and Sgk protein production

C[S+]([O-])c1ccc(-c2nc(-c3ccncc3)c(-c3ccc(F)cc3)[nH]2)cc1 (centres unmarked) [SB203580]
hyperosmotic stress-stimulation of the Sgk promoter and Sgk protein production (Sgk promoter): dampens the hyperosmotic stress-stimulation of the Sgk promoter and Sgk protein production

insulin: hormonal activator of the PI 3-kinase pathway [reference compound]
effect of cell treatment on Sgk enzymatic activity (Sgk): stimulated Sgk enzymatic activity

COc1cccc(-c2cc(=O)c3ccccc3o2)c1N [PD98059]
subcellular distribution of Sgk and Erk/MAPK (Sgk and Erk/MAPK): caused both Sgk and Erk/MAPK to localize to the cytoplasm

C=C1[C@@H](O)[C@@H]2O[C@]3(CC[C@H](/C=C/[C@@H](C)[C@@H]4CC(C)=C[C@@]5(O[C@H](C[C@@](C)(O)C(=O)O)CC[C@H]5O)O4)O3)CC[C@H]2O[C@@H]1[C@@H](O)C[C@H](C)[C@H]1O[C@@]2(CCCCO2)CC[C@H]1C [okadaic acid]
generation of hyperphosphorylated form of Sgk (endogenous Sgk): generates a hyperphosphorylated active Sgk

IGF-1: hormonal activator of the PI 3-kinase pathway [reference compound]
effect of cell treatment on Sgk enzymatic activity (Sgk): stimulated Sgk enzymatic activity

B1: N60–431: N-terminal truncated Sgk (protein, UniProt O00141 60-431, looked up, fragment)
chain: ISQPQEPELMNANPSPPPSPSQQINLGPSSNPHAKPSDFHFLKVIGKGSFGKVLLARHKAEEVFYAVKVLQKKAILKKKEEKHIMSERNVLLKNVKHPFLVGLHFSFQTADKLYFVLDYINGGELFYHLQRERCFLEPRARFYAAEIASALGYLHSLNIVYRDLKPENILLDSQGHIVLTDFGLCKENIEHNSTTSTFCGTPEYLAPEVLHKQPYDRTVDWWCLGAVLYEMLYGLPPFYSRNTAEMYDNILNKPLQLKPNITNSARHLLEGLLQKDRTKRLGAKDDFMEIKSHVFFSLINWDDLINKKITPPFNPNVSGPNDLRHFDPEFTEEPVPNSIGKSPDSVLVTASVKEAAEAFLGFSYAPPTDSFL
effect on cell growth (cell foci assay) (mammary tumor cells): more effectively suppresses tumor cell growth compared to the full length Sgk protein

B2: C1–355: C-terminal Sgk truncation missing the last 75 amino acids (protein, UniProt O00141 1-355, looked up, fragment)
chain: MTVKTEAAKGTLTYSRMRGMVAILIAFMKQRRMGLNDFIQKIANNSYACKHPEVQSILKISQPQEPELMNANPSPPPSPSQQINLGPSSNPHAKPSDFHFLKVIGKGSFGKVLLARHKAEEVFYAVKVLQKKAILKKKEEKHIMSERNVLLKNVKHPFLVGLHFSFQTADKLYFVLDYINGGELFYHLQRERCFLEPRARFYAAEIASALGYLHSLNIVYRDLKPENILLDSQGHIVLTDFGLCKENIEHNSTTSTFCGTPEYLAPEVLHKQPYDRTVDWWCLGAVLYEMLYGLPPFYSRNTAEMYDNILNKPLQLKPNITNSARHLLEGLLQKDRTKRLGAKDDFMEIKSHVFF
effect on cell growth (cell foci assay) (mammary tumor cells): little or no effect on cell growth

B3: T256D/S422D: Sgk double mutation T256D and S422D (protein, UniProt O00141 1-431, looked up, variant T256D S422D)
Serine/threonine-protein …: MTVKTEAAKGTLTYSRMRGMVAILIAFMKQRRMGLNDFIQKIANNSYACKHPEVQSILKISQPQEPELMNANPSPPPSPSQQINLGPSSNPHAKPSDFHFLKVIGKGSFGKVLLARHKAEEVFYAVKVLQKKAILKKKEEKHIMSERNVLLKNVKHPFLVGLHFSFQTADKLYFVLDYINGGELFYHLQRERCFLEPRARFYAAEIASALGYLHSLNIVYRDLKPENILLDSQGHIVLTDFGLCKENIEHNSTTSDFCGTPEYLAPEVLHKQPYDRTVDWWCLGAVLYEMLYGLPPFYSRNTAEMYDNILNKPLQLKPNITNSARHLLEGLLQKDRTKRLGAKDDFMEIKSHVFFSLINWDDLINKKITPPFNPNVSGPNDLRHFDPEFTEEPVPNSIGKSPDSVLVTASVKEAAEAFLGFDYAPPTDSFL
kinase activity / activation of Sgk mutant (Sgk): not constitutively active

B4: S422A: Sgk with serine 422 changed to alanine (protein, UniProt O00141 1-431, looked up, variant S422A)
Serine/threonine-protein …: B3 Serine/threonine-protein … with D256T, D422A
kinase activity / activation of Sgk mutant (Sgk): inhibited Sgk activation

B5: T256A: Sgk with threonine 256 in the activation loop changed to alanine (protein, UniProt O00141 1-431, looked up, variant T256A)
Serine/threonine-protein …: B3 Serine/threonine-protein … with D256A, D422S
reduction in number of cell foci compared to the vector control (mammary tumor cells; G418 selection): 20 fold

B6: T256D: Sgk with threonine 256 changed to aspartate (protein, UniProt O00141 1-431, looked up, variant T256D)
Serine/threonine-protein …: B3 Serine/threonine-protein … with D422S
kinase activity / activation of Sgk mutant (Sgk): partially active

B7: S422D: Sgk with serine 422 changed to aspartate (protein, UniProt O00141 1-431, looked up, variant S422D)
Serine/threonine-protein …: B3 Serine/threonine-protein … with D256T
kinase activity / activation of Sgk mutant (Sgk): partially active
